Test results from PMC4599001, “Selective Irreversible Inhibition of Neuronal and Inducible Nitric-oxide Synthase in the Combined Presence of Hydrogen Sulfide and Nitric Oxide” (The Journal of Biological Chemistry, 2015).
Several values for one entry are separate records, joined by “and”; a condition that tells them apart may be missing. Equal entries are not always repeated. Entries after “also recorded” stand apart in the source; their conditions may differ. Where two headings read alike, the source gives them in different places.

Experiments:
eNOS [1] = target: T1, eNOS (Homo sapiens, UniProt P29474); format: biochemical; details: for ActH2S, specific activity (citrulline formation) / Inhibition / vNO^H2S, NO formation rate: 0.5 mM H2S
Target sequence in this assay (P29474 2-1203): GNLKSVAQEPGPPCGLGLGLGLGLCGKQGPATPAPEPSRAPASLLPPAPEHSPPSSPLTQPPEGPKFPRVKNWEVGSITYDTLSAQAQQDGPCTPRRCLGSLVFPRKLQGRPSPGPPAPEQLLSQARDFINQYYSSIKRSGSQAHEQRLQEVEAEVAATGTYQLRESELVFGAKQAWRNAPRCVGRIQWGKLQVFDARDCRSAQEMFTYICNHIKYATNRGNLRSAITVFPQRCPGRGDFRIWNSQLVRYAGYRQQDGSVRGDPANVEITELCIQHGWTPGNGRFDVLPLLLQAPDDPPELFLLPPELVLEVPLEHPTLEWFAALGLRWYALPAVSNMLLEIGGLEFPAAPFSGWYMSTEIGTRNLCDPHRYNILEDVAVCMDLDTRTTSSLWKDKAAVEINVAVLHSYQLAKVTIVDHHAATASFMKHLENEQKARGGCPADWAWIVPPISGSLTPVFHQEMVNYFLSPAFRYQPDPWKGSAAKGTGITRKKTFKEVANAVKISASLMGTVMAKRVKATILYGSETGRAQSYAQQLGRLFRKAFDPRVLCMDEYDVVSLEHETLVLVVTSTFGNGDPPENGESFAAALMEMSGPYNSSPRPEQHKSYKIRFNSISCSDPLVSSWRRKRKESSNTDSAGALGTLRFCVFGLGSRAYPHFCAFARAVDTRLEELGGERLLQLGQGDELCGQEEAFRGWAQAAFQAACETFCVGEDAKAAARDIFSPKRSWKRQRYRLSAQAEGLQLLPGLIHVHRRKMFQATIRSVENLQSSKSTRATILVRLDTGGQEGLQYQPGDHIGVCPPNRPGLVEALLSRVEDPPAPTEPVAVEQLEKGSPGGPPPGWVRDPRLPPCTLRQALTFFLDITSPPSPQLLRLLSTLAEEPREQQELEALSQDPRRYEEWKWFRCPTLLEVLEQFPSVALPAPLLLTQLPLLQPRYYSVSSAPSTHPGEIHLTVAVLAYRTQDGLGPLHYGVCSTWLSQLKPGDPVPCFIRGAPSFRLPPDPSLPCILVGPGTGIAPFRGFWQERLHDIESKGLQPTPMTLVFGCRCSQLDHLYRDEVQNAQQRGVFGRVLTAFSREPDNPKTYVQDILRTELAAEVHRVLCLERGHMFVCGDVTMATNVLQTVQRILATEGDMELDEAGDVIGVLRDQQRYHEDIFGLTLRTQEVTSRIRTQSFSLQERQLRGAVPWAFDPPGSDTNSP

nNOS [2] = target: T2, nNOS (Homo sapiens, UniProt P29475); details: for ActH2S, specific activity (citrulline formation) / Inhibition / vNO^H2S, NO formation rate: 0.5 mM H2S
T2 sequence (P29475 whole entry): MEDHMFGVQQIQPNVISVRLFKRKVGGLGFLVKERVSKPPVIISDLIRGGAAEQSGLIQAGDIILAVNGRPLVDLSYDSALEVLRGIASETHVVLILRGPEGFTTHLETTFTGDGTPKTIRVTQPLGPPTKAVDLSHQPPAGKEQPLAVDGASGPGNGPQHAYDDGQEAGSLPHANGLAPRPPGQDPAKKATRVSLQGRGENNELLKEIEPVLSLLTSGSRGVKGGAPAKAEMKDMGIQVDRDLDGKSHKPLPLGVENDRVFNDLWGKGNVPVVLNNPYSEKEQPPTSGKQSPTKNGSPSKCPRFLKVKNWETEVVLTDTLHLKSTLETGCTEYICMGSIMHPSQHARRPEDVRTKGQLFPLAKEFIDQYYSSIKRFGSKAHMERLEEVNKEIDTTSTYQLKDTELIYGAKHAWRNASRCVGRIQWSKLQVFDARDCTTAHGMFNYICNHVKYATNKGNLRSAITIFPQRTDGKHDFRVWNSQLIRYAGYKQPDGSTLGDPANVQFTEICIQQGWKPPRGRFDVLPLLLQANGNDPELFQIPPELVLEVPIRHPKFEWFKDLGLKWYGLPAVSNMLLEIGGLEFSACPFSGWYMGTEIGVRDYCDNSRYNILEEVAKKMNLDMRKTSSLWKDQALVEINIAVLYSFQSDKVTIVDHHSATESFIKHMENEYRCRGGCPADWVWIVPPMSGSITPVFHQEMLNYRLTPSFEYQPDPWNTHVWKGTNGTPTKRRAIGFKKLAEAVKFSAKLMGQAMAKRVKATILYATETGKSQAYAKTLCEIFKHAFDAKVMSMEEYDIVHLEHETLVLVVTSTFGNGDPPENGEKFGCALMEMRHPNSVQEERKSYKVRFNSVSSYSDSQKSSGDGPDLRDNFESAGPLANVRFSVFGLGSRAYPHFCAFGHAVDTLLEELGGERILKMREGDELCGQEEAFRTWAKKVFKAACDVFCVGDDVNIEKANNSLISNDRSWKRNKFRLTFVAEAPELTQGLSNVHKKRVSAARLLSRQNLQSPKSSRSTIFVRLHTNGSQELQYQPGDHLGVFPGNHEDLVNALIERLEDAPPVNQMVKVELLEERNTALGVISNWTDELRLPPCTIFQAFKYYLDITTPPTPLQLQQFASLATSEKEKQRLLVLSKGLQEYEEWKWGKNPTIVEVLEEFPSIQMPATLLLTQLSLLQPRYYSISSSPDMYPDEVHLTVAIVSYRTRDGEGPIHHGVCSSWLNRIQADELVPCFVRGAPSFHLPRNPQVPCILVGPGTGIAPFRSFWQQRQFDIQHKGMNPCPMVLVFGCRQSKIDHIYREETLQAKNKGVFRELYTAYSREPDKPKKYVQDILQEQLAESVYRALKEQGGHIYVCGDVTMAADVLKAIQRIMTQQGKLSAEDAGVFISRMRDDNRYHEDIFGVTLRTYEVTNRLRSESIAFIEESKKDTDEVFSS

nNOS [3] = target: T2, nNOS; format: biochemical
nNOS [4] = target: T2, nNOS; assay: NADPH oxidation by nNOS (340 nm); format: biochemical
[5] = 37 °C; cited from earlier work
eNOS [6] = target: T1, eNOS; assay: NADPH oxidation by eNOS (340 nm); format: biochemical; details: +Arg, +BH4, without Na2S
[7] = cited from earlier work; for t1/2 of NO release: ref 35
eNOS [8] = target: T1, eNOS
nNOS [9] = target: T2, nNOS
nNOS [10] = target: T2, nNOS; format: binding
mouse macrophage iNOS = target: T3, mouse macrophage iNOS (Mus musculus, UniProt P29477); format: biochemical; details: pH 7.4; read-out: IC50, citrulline formation by iNOS
T3 construct: made in house; host or cells: Escherichia coli
T3 sequence (P29477 whole entry): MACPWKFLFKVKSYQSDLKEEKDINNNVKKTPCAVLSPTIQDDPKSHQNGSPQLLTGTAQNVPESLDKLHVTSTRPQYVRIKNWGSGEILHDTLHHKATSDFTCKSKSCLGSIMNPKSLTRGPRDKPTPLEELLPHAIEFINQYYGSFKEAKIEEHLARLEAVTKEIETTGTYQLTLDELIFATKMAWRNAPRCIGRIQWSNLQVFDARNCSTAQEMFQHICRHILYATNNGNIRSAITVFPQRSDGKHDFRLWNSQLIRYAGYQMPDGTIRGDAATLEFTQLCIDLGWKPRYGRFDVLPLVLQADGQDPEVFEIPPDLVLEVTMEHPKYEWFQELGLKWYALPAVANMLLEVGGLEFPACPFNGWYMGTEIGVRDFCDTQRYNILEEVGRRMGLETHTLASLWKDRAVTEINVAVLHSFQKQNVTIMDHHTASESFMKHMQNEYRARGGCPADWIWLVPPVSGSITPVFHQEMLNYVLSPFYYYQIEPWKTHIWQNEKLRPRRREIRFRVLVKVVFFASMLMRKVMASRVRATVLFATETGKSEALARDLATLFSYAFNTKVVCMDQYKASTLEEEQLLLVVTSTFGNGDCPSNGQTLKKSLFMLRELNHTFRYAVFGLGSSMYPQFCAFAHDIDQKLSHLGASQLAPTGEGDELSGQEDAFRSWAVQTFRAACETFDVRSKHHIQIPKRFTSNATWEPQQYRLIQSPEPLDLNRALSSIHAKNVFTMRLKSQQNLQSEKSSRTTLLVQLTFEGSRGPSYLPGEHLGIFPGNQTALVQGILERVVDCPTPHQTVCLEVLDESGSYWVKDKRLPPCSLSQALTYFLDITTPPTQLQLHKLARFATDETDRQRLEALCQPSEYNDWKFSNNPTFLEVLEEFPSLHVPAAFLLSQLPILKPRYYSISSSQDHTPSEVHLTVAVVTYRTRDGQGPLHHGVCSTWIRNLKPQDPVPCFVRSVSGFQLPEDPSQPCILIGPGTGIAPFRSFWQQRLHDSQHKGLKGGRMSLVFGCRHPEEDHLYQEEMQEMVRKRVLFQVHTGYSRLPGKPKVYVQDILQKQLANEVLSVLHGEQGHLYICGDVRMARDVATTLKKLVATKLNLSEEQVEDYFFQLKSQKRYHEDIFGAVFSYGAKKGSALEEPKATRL

nNOS [11] = details: read-out: IC50, inhibition of nNOS, cited from earlier work

Compound: S [H2S, hydrogen sulfide]
- ActH2S, specific activity (citrulline formation) (eNOS [1]; eNOS 2.0 μg/ml): 98 ± 12 nmol/mg/min
- Inhibition (eNOS [1]; eNOS 2.0 μg/ml): 24 ± 16%
- vNO^H2S, NO formation rate (eNOS [1]; eNOS 2.0 μg/ml): 0.20 ± 0.02 µM/min
- ActH2S, specific activity (citrulline formation) (eNOS [1]; eNOS 10.0 μg/ml): 134 ± 16 nmol/mg/min
- Inhibition (eNOS [1]; eNOS 10.0 μg/ml): 16 ± 12%
- vNO^H2S, NO formation rate (eNOS [1]; eNOS 10.0 μg/ml): 1.34 ± 0.16 µM/min
- ActH2S, specific activity (citrulline formation) (eNOS [1]; eNOS 15.0 μg/ml): 146 ± 19 nmol/mg/min
- Inhibition (eNOS [1]; eNOS 15.0 μg/ml): 5 ± 14%
- vNO^H2S, NO formation rate (eNOS [1]; eNOS 15.0 μg/ml): 2.2 ± 0.3 µM/min
- ActH2S, specific activity (citrulline formation) (eNOS [1]; eNOS 30.0 μg/ml): 136 ± 38 nmol/mg/min
- Inhibition (eNOS [1]; eNOS 30.0 μg/ml): −6 ± 35%
- vNO^H2S, NO formation rate (eNOS [1]; eNOS 30.0 μg/ml): 4.1 ± 1.1 µM/min
- ActH2S, specific activity (citrulline formation) (nNOS [2]; nNOS 0.5 μg/ml): 53 ± 26 nmol/mg/min
- Inhibition (nNOS [2]; nNOS 0.5 μg/ml): 86 ± 7%
- vNO^H2S, NO formation rate (nNOS [2]; nNOS 0.5 μg/ml): 0.026 ± 0.013 µM/min
- ActH2S, specific activity (citrulline formation) (nNOS [2]; nNOS 2.0 μg/ml): 31 ± 8 nmol/mg/min
- Inhibition (nNOS [2]; nNOS 2.0 μg/ml): 92 ± 2%
- vNO^H2S, NO formation rate (nNOS [2]; nNOS 2.0 μg/ml): 0.062 ± 0.016 µM/min
- ActH2S, specific activity (citrulline formation) (nNOS [2]; nNOS 10.0 μg/ml): 24 ± 2 nmol/mg/min
- Inhibition (nNOS [2]; nNOS 10.0 μg/ml): 92 ± 1%
- vNO^H2S, NO formation rate (nNOS [2]; nNOS 10.0 μg/ml): 0.24 ± 0.02 µM/min
- ActH2S, specific activity (citrulline formation) (nNOS [2]; nNOS 15.0 μg/ml): 29 ± 2 nmol/mg/min
- Inhibition (nNOS [2]; nNOS 15.0 μg/ml): 91 ± 1%
- vNO^H2S, NO formation rate (nNOS [2]; nNOS 15.0 μg/ml): 0.44 ± 0.03 µM/min
- Decrease of nNOS activity after dilution (nNOS [3]; preincubation with 0.5 mM Na2S under turnover conditions (+CaM), 150-fold dilution): ~70%
- nNOS activity after dilution (nNOS [3]; preincubation with 0.5 mM Na2S, CaM omitted during preincubation): activity was not affected
- IC50 (nNOS [4]; Arg and/or BH4 omitted, no NO (span over conditions), read-out: IC50, reversible inhibition of nNOS by H2S alone): 100 to 600 µM
- pKa of the H2S/HS− equilibrium [5]: 6.76

Compound: O=C([O-])[C@@H]1CCCN1[N+]([O-])=NO.O=C([O-])[C@@H]1CCCN1[N+]([O-])=NO.[Na+].[Na+] [PROLI/NO, 1-(hydroxy-NNO-azoxy)-L-proline, disodium salt]
- IC50 (eNOS [6]): 100 µM
- t1/2 of NO release [7]: 0.017 to 0.033 min
- IC50 (nNOS [4]; +Arg, −BH4, in the absence of Na2S, read-out: IC50, NADPH oxidation by nNOS): ~80 µM
- IC50 (nNOS [4]; +Arg, −BH4, in the presence of 10 μM Na2S, read-out: IC50, NADPH oxidation by nNOS): ~10 µM

Compound: [Na+].[Na+].[O-][N+]([O-])=NO [Angeli's salt, disodium diazen-1-ium-1,2,2-triolate]
- Reversal of inhibition by thiols (nNOS [2]; 10 mM GSH or 2 mM DTT present): completely reversed in the presence of thiols
- IC50 (nNOS [2]; read-out: IC50, citrulline formation by nNOS, Angeli's salt as HNO donor, 50 mM TEA pH 7.4, 10 min, 37 °C): 190 µM

Compound: C1COCCN1.COc1ccc(P(=S)(S)N2CCOCC2)cc1 (centres unmarked) [GYY4137]
- IC50 (nNOS [2]; read-out: Apparent IC50, citrulline formation by nNOS): 2200 µM
- t½ of H2S release ([7]; ref 34): ~415 min

Compound: NCCCNCCCCN(CCCN)/[N+]([O-])=N/O [SPER/NO, (Z)-1-[N-[3-aminopropyl]-N-[4-(3-aminopropylammonio)butyl]amino]diazen-1-ium-1,2-diolate]
- t1/2 of NO release [7]: ~30 min
- IC50 (nNOS [4]; absence of BH4, with Na2S, after 10 min, read-out: Apparent IC50, potentiation of the inhibitory effect of Na2S on NADPH oxidation by nNOS): 106 µM

Compound: [Na+].[Na+].[S-2] [Na2S, sodium sulfide]
- Effect on eNOS activity (eNOS [1]): hardly affected
- Effect on citrulline formation by eNOS (eNOS [1]; pH 7.4): hardly affected at all; also recorded: only marginally affected
- Effect of thiols on IC50 of inhibition of citrulline formation (nNOS [2]): none of these thiols had any impact on IC50 values
- nNOS activity blocked (nNOS [2]): ~90%
- pKa from plot of IC50 against pH (nNOS [2]): 7.310 ± 0.014
- IC50 (nNOS [2]; read-out: IC50, citrulline formation by nNOS): 23 µM
- IC50 (nNOS [2]; read-out: IC50, citrulline formation by nNOS, pH 6): ~15 µM and 15 µM
- IC50 (nNOS [2]; read-out: IC50, citrulline formation by nNOS, pH 7.4): ~24 µM and 24 µM and 31 µM
- IC50 (nNOS [2]; read-out: IC50, citrulline formation by nNOS, pH 8): ~83 µM and 83 µM
- Dimer/monomer ratio of eNOS (eNOS [8]): not affected by Na2S at all
- Dimeric enzyme, gel filtration (nNOS [9]): ~55%
- Extent of spectral transition to thiol complex (nNOS [10]): approximately 50%
- IC50 (mouse macrophage iNOS): ~79 µM and 79 µM
- Decrease of nNOS activity after dilution (nNOS [3]): approximately 70%
- Reversal of inhibition by thiols (nNOS [3]): none of these thiols restored the activity
- nNOS activity after dilution (nNOS [3]): not affected

Compound: O[C@@H](CS)[C@@H](O)CS [DTT]
- IC50 (nNOS [11]; ref 16): 13200 µM
- IC50 (nNOS [11]; ref 27): 160 µM
